Test results as given in paper PMC7553643 (Bioorganic & medicinal chemistry letters, 2009).
Marks after values point to notes of the source that are not given here.

What was measured:
[1] = Pharmacokinetics in rats after single po and iv dosing; details: for AUC(0-inf): plasma
Caco2 permeability = format: in vitro ADME; details: human, Caco-2
[2] = Stability in rat liver microsomes; format: in vitro ADME
Caco2 = Caco2 permeability; format: in vitro ADME
[3] = rats, po, dose normalized to 30 mg/kg

SMILES | clearance ([1]; rat, in vivo, iv, 30 mg/kg) [mL/min/kg] | half-life ([1]; rat, in vivo, iv, 30 mg/kg) [min] | AUC ([1]; rat, in vivo, po, 30 mg/kg) [ng·h/mL] | Cmax ([1]; rat, in vivo, po, 30 mg/kg) [ng/mL] | half-life ([1]; rat, in vivo, po, 30 mg/kg) [min] | AUC(0-inf) ([1]; rat, iv, 30 mg/kg) [ng·h/mL] | AUC(0-inf) ([1]; rat, po, 30 mg/kg) [ng·h/mL] | BA ([1]; rats, 30 mg/kg, po) [%] | Papp (Caco2 permeability) [×10⁻⁶ cm/s] | solubility (Solubility) | remaining at 0.25 h [2] [%] | AUC (0-∞) (dose normalized to 30 mg/kg) [1, 3] | Cmax (dose normalized to 30 mg/kg) [1, 3] | Caco2 permeability (Caco2)
CCCCN1C(=O)[C@H](CC2CCCCC2)NC(=O)C12CCN(Cc1ccc(Oc3ccc(C(=O)O)cc3)cc1)CC2.Cl [Compound 12, 4-(4-{[(3S)-1-butyl-3-(cyclohexylmethyl)-2,5-dioxo-1,4,9-triaza-spiro[5.5]undec-9-yl]methyl}phenoxy)benzoic acid hydrochloride] | 16 | 11.1 | 10500 | 7200 | 48.4 | 3090 | 10500 | 34.1 | 26.4 | 26 µM | 22 | – | – | –
CCCCN1C(=O)C(CC2CCCCC2)NC(=O)C12CCN(Cc1ccc(Oc3ccccc3)cc1)CC2.Cl (centres unmarked) [Compound 1a] | 113 | – | – | – | – | – | – | 1.9 | – | less than 5 μM | – | 74.4^a ng h/m | 16.7^a ng/mL | not detected
